Assay results taken from BindingDB's records for doi:10.1124/jpet.104.068098 (University of Kentucky, 2004).

What was measured:
[1] = molecular target: Sodium-dependent noradrenaline transporter (Homo sapiens, UniProt P23975)
[2] = molecular target: Sodium-dependent dopamine transporter (Homo sapiens, UniProt Q01959)
[3] = molecular target: Sodium-dependent serotonin transporter (Homo sapiens, UniProt P31645)
Sequence of Sodium-dependent serotonin transporter (P31645 whole entry): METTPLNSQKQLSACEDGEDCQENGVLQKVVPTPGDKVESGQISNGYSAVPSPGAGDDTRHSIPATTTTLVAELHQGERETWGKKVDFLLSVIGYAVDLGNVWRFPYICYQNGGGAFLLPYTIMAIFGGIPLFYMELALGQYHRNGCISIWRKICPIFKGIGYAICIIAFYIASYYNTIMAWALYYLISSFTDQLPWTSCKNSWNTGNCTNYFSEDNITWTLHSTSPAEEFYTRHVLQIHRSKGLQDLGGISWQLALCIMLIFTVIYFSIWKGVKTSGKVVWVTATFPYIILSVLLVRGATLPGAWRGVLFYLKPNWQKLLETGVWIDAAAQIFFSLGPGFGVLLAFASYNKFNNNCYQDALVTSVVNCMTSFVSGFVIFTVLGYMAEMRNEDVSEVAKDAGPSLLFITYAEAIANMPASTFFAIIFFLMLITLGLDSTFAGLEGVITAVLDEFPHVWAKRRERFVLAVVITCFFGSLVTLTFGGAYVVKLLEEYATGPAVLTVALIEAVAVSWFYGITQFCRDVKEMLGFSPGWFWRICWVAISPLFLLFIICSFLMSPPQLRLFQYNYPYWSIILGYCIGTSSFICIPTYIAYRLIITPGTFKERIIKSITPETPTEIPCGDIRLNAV

Sequence of Sodium-dependent noradrenaline transporter (P23975 whole entry): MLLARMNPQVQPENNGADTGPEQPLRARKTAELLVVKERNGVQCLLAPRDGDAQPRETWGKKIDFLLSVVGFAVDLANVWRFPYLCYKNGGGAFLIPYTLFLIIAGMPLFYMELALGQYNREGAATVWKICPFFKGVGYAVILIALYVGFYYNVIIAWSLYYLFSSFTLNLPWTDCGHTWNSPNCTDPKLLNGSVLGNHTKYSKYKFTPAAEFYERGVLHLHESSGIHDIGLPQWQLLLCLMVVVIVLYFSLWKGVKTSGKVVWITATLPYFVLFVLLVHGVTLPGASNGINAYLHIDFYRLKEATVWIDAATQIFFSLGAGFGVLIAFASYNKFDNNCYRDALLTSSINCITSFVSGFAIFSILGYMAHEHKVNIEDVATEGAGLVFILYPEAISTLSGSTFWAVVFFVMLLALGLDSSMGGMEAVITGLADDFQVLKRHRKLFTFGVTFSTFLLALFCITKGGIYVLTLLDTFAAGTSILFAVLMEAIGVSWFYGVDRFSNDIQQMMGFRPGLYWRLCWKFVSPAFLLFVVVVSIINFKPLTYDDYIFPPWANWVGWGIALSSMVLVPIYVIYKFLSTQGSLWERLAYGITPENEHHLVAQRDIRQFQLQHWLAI
Sequence of Sodium-dependent dopamine transporter (Q01959 whole entry): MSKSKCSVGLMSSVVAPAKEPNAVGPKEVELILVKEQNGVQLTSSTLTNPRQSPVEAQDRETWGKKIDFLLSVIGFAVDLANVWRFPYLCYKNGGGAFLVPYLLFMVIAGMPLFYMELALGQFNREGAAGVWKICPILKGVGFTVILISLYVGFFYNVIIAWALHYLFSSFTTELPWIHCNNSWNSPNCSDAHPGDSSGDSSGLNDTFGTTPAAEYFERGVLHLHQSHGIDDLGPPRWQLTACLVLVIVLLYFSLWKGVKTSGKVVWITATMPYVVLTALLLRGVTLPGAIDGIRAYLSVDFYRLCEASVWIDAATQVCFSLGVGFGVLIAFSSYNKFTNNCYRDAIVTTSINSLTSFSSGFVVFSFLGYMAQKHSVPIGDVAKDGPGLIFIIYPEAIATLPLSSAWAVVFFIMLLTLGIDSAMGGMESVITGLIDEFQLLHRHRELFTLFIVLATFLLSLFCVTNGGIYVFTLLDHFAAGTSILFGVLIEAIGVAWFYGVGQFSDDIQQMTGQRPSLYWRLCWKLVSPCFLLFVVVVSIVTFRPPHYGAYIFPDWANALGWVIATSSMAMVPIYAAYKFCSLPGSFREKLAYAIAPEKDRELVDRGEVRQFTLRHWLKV

| Compound | Ki [1] [nM] | Ki [2] [nM] | Ki [3] [nM] |
| --- | --- | --- | --- |
| CN1[C@@H](CCc2ccccc2)CCC[C@H]1CCc1ccccc1 | 1800 | 97 | 530 |
| CN1[C@H](/C=C/c2ccccc2)CCC[C@@H]1/C=C/c1ccccc1 | 277 | 43 | 1890 |
| CN1[C@@H](C[C@@H](O)c2ccccc2)CCC[C@H]1CC(=O)c1ccccc1 [Lobeline] | 1870 | 5400 | > 10000 |
